According to ChEMBL document CHEMBL5393457, “Combined inhibition of amino acid transporters for inhibiting human plasmacytoid dendritic cell activity during autoimmunity” (2022):
Active and inactive are the calls of the source. The rule behind the calls is not given here.

Key:
[1] = molecular target: Large neutral amino acids transporter small subunit 1 (Homo sapiens) (UniProt Q01650); experiment: Inhibition of human LAT1 at 100 uM relative to control
[2] = molecular target: T1, Signal transducer and activator of transcription 5A (Homo sapiens) (UniProt P42229); experiment: Inhibition of STAT5 in IL-3 and CpG-A-stimulated human plasmacytoid dendritic cells at 1 to 2 uM assessed as decrease in IFN-alpha production in presence of 100 uM sulfasalazine; format: cell-based; details: Plasmacytoid dendritic cell, dose 1-2 µM
T1 sequence (whole entry): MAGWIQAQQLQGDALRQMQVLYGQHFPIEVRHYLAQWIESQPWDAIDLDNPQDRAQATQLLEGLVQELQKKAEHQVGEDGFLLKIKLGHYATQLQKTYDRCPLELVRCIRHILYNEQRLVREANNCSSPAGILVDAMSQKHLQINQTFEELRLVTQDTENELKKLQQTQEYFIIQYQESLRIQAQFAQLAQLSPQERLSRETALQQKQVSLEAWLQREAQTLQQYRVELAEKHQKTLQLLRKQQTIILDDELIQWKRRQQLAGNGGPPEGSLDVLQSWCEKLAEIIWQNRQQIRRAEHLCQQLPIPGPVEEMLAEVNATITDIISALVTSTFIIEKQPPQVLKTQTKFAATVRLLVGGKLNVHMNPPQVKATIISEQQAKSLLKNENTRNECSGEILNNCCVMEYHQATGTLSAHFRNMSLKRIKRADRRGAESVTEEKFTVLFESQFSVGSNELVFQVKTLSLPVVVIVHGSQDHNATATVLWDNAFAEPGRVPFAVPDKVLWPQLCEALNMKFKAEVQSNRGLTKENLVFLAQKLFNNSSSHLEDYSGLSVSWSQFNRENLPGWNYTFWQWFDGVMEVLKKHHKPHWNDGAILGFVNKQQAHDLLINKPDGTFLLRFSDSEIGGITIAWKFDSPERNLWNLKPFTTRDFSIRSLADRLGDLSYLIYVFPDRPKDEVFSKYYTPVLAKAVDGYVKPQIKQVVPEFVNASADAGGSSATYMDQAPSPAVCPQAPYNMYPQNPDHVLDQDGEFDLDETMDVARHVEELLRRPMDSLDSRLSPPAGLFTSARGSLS

[3] = molecular target: T1, Signal transducer and activator of transcription 5A (Homo sapiens); experiment: Inhibition of STAT5 in IL-3 and CpG-A-stimulated human plasmacytoid dendritic cells at 1 to 2 uM assessed as decrease in TNF production in presence of 100 uM sulfasalazine; format: cell-based; details: Plasmacytoid dendritic cell, dose 1-2 µM
[4] = molecular target: Tyrosine-protein kinase JAK2 (Homo sapiens) (UniProt O60674); experiment: Inhibition of JAK2 in IL3- and CpG-A-activated human plasmacytoid dendritic cells at 20 nM assessed as decrease in ENPP2/IFNA2 expression; format: cell-based; details: Plasmacytoid dendritic cell
[5] = molecular target: T2, mTORC1 (Homo sapiens) (UniProt P42345+Q8N122+Q9BVC4); details: Plasmacytoid dendritic cell, dose 250.0 nM
Description: Inhibition of mTORC1 in CpG-A-stimulated human plasmacytoid dendritic cells at 250 nM assessed as decrease in lactate release

[6] = molecular target: Tyrosine-protein kinase JAK2 (Homo sapiens) (UniProt O60674); experiment: Inhibition of JAK2 in IL3- and CpG-A-activated human plasmacytoid dendritic cells at 20 nM assessed as decrease in MYO1E/IFNA2 expression; format: cell-based; details: Plasmacytoid dendritic cell
[7] = molecular target: T2, mTORC1 (Homo sapiens); details: Plasmacytoid dendritic cell, dose 20.0 nM
Description: Inhibition of mTORC1 in CpG-A-stimulated human plasmacytoid dendritic cells at 20 nM assessed as decrease in lactate release

[8] = molecular target: Tyrosine-protein kinase JAK2 (Homo sapiens) (UniProt O60674); experiment: Inhibition of JAK2 in TLR9-activated human plasmacytoid dendritic cells at 20 nM assessed as decrease in CpG-A stimulated SLC7A11 expression; format: cell-based; details: Plasmacytoid dendritic cell
[9] = tested on: Plasmacytoid dendritic cell; experiment: Inhibition of mTORC1/mTORC2 in TLR9-activated human plasmacytoid dendritic cells at 1 uM assessed as decrease in CpG-A stimulated SLC7A11 expression; format: cell-based
[10] = tested on: Plasmacytoid dendritic cell; experiment: Inhibition of mTORC1/mTORC2 in IL-3 and CpG-A-activated human plasmacytoid dendritic cells at 200 nM assessed as decrease in decrease in MYO1E/IFNA2 expression; format: cell-based
[11] = tested on: Plasmacytoid dendritic cell; experiment: Inhibition of mTORC1/mTORC2 in CpG-A and IL-3-activated human plasmacytoid dendritic cells at 200 ng/mL assessed as decrease in IFN-alpha production; format: cell-based
[12] = tested on: Plasmacytoid dendritic cell; experiment: Inhibition of mTORC1/mTORC2 in CpG-A and IL-3-activated human plasmacytoid dendritic cells at 200 ng/mL assessed as decrease in SLC3A2 expression; format: cell-based
[13] = tested on: Plasmacytoid dendritic cell; experiment: Inhibition of mTORC1/mTORC2 in CpG-A and IL-3-activated human plasmacytoid dendritic cells at 200 ng/mL assessed as decrease in TNF production; format: cell-based
[14] = tested on: Plasmacytoid dendritic cell; experiment: Inhibition of mTORC1/mTORC2 in CpG-A and IL-3-activated human plasmacytoid dendritic cells at 200 ng/mL assessed as decrease in SLC7A5 expression; format: cell-based
[15] = tested on: Plasmacytoid dendritic cell; experiment: Inhibition of mTORC1/mTORC2 in IL-3 and CpG-A-activated human plasmacytoid dendritic cells at 200 nM assessed as decrease in decrease in ENPP2/IFNA2 expression; format: cell-based
[16] = molecular target: T3, Cystine/glutamate transporter (Homo sapiens) (UniProt Q9UPY5); experiment: Inhibition of XCT in CpG-A-activated human plasmacytoid dendritic cells at 25 to 100 uM assessed as decrease in TNF production in presence of 100 uM sulfasalazine; format: cell-based; details: Plasmacytoid dendritic cell, dose 25-100 µM
T3 sequence (whole entry): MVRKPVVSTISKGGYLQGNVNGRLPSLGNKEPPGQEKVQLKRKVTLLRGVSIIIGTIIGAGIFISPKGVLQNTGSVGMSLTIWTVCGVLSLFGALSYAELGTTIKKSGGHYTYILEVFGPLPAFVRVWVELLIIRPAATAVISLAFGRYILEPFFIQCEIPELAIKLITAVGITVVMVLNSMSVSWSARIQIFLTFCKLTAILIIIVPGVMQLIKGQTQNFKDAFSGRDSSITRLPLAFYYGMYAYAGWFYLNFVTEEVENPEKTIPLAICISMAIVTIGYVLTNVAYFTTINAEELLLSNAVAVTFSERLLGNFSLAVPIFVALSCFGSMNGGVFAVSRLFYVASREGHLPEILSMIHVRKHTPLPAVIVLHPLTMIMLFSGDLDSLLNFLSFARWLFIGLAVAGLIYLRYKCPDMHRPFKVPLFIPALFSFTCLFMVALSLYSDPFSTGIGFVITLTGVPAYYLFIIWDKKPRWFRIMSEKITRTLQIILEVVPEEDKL

Chain of Tyrosine-protein kinase JAK2 (Homo sapiens) (O60674 whole entry): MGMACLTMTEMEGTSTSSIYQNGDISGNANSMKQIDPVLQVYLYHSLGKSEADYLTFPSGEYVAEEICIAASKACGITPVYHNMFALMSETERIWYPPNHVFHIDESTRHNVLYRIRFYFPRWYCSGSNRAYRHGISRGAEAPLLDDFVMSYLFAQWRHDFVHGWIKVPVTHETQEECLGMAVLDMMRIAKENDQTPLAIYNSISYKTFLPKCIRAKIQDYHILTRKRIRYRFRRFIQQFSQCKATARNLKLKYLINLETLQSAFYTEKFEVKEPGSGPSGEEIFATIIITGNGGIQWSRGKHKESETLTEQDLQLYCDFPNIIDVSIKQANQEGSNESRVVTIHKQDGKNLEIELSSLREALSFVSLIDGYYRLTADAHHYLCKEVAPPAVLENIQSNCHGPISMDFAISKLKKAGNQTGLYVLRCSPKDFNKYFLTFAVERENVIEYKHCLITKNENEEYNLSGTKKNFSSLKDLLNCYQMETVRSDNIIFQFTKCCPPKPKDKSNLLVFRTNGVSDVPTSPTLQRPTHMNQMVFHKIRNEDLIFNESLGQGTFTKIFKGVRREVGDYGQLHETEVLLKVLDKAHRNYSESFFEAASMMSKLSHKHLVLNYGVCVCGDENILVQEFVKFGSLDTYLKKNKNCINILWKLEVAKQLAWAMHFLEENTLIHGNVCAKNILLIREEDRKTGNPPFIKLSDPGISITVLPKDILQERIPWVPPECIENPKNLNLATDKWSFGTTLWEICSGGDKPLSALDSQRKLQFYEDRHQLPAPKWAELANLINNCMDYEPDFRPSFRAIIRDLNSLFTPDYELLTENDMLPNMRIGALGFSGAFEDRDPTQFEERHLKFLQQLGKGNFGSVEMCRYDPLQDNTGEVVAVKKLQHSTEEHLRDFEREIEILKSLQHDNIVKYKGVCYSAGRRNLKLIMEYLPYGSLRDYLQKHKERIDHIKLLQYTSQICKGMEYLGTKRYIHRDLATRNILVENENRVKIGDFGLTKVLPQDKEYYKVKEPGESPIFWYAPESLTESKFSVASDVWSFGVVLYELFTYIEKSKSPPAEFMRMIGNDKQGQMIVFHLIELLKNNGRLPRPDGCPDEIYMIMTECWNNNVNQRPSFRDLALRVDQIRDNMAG
Chain of Large neutral amino acids transporter small subunit 1 (Homo sapiens) (Q01650 whole entry): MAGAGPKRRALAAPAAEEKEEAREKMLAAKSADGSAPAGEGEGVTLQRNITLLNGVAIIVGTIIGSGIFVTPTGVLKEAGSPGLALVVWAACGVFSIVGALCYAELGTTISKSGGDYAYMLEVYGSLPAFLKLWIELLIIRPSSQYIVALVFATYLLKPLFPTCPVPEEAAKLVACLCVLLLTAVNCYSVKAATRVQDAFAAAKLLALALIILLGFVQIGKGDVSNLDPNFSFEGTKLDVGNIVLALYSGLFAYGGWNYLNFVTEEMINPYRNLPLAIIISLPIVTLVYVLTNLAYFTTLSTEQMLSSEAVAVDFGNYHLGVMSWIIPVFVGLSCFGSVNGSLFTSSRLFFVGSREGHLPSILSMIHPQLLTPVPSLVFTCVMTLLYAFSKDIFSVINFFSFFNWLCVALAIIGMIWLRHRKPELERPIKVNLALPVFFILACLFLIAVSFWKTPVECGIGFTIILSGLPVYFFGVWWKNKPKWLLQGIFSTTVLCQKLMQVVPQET
T2 sequence (Q8N122 whole entry, looked up, other chains not shown): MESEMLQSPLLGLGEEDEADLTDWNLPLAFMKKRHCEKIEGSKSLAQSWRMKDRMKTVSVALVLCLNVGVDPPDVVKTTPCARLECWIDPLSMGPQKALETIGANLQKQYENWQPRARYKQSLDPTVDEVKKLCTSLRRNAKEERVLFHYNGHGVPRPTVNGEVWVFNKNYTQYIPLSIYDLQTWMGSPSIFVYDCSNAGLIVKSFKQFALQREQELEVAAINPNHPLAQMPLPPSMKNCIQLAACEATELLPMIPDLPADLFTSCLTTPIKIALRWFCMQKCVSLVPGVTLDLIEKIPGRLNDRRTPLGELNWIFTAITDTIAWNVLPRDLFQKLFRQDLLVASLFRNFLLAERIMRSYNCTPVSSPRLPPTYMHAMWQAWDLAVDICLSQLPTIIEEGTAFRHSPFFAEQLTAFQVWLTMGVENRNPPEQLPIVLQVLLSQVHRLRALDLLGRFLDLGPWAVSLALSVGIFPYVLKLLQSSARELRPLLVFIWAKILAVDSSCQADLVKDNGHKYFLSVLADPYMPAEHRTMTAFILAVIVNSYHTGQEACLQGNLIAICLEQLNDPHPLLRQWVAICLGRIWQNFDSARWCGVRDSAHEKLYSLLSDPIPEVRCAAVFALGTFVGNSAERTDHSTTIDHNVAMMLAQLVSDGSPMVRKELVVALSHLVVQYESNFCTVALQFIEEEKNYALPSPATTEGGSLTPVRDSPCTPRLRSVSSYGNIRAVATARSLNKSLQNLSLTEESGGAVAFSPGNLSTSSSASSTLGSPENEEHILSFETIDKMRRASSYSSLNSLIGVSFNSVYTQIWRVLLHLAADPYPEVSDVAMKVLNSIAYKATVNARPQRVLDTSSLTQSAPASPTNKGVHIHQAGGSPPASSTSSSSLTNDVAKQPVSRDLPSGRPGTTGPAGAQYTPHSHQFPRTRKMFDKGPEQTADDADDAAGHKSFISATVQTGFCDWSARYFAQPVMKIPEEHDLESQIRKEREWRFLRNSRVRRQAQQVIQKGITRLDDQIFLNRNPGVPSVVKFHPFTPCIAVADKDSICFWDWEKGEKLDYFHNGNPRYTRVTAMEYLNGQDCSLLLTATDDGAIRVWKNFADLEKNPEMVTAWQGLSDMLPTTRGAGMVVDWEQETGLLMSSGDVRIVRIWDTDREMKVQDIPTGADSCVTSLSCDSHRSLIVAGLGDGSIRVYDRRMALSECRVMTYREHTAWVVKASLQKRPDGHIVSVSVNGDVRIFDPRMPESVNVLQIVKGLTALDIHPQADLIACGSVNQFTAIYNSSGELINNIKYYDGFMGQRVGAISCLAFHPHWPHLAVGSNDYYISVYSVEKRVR
T2 sequence (Q9BVC4 whole entry, looked up, other chains not shown): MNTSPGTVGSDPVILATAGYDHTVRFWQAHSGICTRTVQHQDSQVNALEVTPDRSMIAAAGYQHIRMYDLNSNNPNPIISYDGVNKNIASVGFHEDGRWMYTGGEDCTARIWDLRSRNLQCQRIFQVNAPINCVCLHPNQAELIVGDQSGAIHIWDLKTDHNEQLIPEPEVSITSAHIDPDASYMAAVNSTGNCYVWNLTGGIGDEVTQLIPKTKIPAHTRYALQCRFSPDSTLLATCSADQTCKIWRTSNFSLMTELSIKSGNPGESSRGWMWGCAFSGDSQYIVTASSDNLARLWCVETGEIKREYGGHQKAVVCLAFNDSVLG

With `N#Cc1cc(Br)ccc1/N=c1\ssnc1Cl` the inhibition [1] was greater than 90%.
Compound `N#C/C=N/c1c(SS)c(-c2ccccc2)nn1Cc1ccccc1` has an inhibition [1] greater than 90%.
In the case of `CC(C)(C)c1cc(CN(C(=O)CN(Cc2ccc(Cl)cc2)S(=O)(=O)c2c(F)c(F)c(F)c(F)c2F)c2ccc(C(=O)O)cc2)cc(C(C)(C)C)c1`, the inhibition [2] is reported as “Active” and the inhibition [3] is reported as “Active”.
In the case of `Fc1ccc(Cl)cc1/N=c1\ssnc1Cl`, the inhibition [1] is reported as greater than 90%.
For `CO[C@H]1CC2CC[C@@H](C)[C@@](O)(O2)C(=O)C(=O)N2CCCC[C@H]2C(=O)O[C@H]([C@H](C)C[C@@H]2CC[C@@H](O)[C@H](OC)C2)CC(=O)[C@H](C)/C=C(\C)[C@@H](O)[C@@H](OC)C(=O)[C@H](C)C[C@H](C)/C=C/C=C/C=C/1C`, the inhibition [4] was “Active”, the inhibition [5] was “Active” and the inhibition [6] was “Active”. For the same compound, the inhibition [7] was “Active” and the inhibition [8] was “Active”.
`CCC(=O)N1CCN(c2ccc(-n3c(=O)ccc4cnc5ccc(-c6cnc7ccccc7c6)cc5c43)cc2C(F)(F)F)CC1` was tested, and the inhibition [9] was “Active”, the inhibition [10] was “Active” and the inhibition [11] was “Active”. For the same compound, the inhibition [12] was “Active”, the inhibition [13] was “Active” and the inhibition [14] was “Active”. The inhibition [15] was “Active”.
With `CCS(=O)(=O)N1CC(CC#N)(n2cc(-c3ncnc4[nH]ccc34)cn2)C1` the inhibition [16] was “Active”.
For `O=c1[nH]c2ccccc2n1C1CCN(CCCC(c2ccc(F)cc2)c2ccc(F)cc2)CC1`, the inhibition [2] was “Active” and the inhibition [3] was “Active”.
